Consider one compound from patent CN109223750A, “琥珀酸在防治对虾肠炎中的应用” (South China Sea Fisheries Research Institute Chinese …, priority 2018, dated 2019).

The subject of experiment [1] is NF-κB. Conditions: 7 days, versus enteritis model group.
Experiment [2] relates to shrimp intestinal mucosa (对虾 肠道黏膜). Conditions: 7 days; for intestinal mucosal damage (histopathology): HE, ×200.
Experiment [3] deals with bacteria (细菌). Conditions: by raising bacterial proton motive force; cited from earlier work.
The conditions of experiment [4]: cited from earlier work.
Experiment [5] deals with tilapia-derived Streptococcus agalactiae β-haemolysin/cytolysin (罗非鱼源无乳链球菌β-溶血/溶细胞素). Conditions: cited from earlier work.
In experiment [6] the test system is HIF-1α. Conditions: through activation of HIF-1α; cited from earlier work.
Experiment [7] concerns TNF-α. The conditions noted are these: 7 days, versus enteritis model group.
For experiment [8], the system named is IL-1β. The conditions noted are these: 7 days, versus enteritis model group.
For experiment [9], the system named is IL-10. The conditions noted are these: 7 days, versus enteritis model group.

Structures are written as SMILES. Read-outs that look alike come from different tables or passages of the source.

Consider `O=C(O)CCC(=O)O` [琥珀酸], for which the NF-κB expression result in [1] (high dose: 1% in feed) and in [1] (low dose: 0.25% in feed) was “显著降低” each time. The “intestinal mucosal damage (histopathology)” value in [2] (high dose: 1% succinic acid in basal feed) and in experiment [2] (low dose: 0.25% succinic acid in basal feed) was “肠道黏膜损伤已修复,形态完整,结构清晰” in each case. The “intestinal epithelial cell height” value in experiment [2] (high dose: 1% succinic acid in basal feed, versus blank control group and versus low-dose group) was “均有明显增加”; in experiment [2] (low dose: 0.25% succinic acid in basal feed, versus blank control group), “有明显增加”. Moreover, in [3], the “sensitivity of bacteria to antibiotics” value was “能够提高细菌对抗生素的敏感性”. The “antibacterial and antioxidant function” value in experiment [4] (in vivo) is given as “提高”. In addition, the feed conversion ratio entry in [4] (shrimp) is listed as “降低”. Moreover, the “activity of β-haemolysin/cytolysin” value in experiment [5] is “抑制”. In addition, the “IL-1β secretion, inflammation” value in experiment [6] is listed as “诱导IL-1β分泌促进炎症”. Besides, the TNF-α expression result in experiment [7] (high dose: 1% in feed) and in experiment [7] (low dose: 0.25% in feed) was “显著降低” in each case. For the same compound, the IL-1β expression entry in [8] (high dose: 1% in feed) and in experiment [8] (low dose: 0.25% in feed) was “显著降低” each time. Further, the IL-10 expression result in experiment [9] (high dose: 1% in feed) and in [9] (low dose: 0.25% in feed) was “显著降低” throughout.
